Measured values taken from ChEMBL document CHEMBL1148572, “1-((S)-2-aminopropyl)-1H-indazol-6-ol: a potent peripherally acting 5-HT2 receptor agonist with ocular hypotensive activity” (J Med Chem, 2006).

Key:
[1] = molecular target: T1, monoamine oxidase A (MAO-A) (Rattus norvegicus, UniProt P21396); assay: Inhibition of monoamine oxidase A in rat brain at 10 uM; format: tissue-based
T1 sequence (P21396 whole entry): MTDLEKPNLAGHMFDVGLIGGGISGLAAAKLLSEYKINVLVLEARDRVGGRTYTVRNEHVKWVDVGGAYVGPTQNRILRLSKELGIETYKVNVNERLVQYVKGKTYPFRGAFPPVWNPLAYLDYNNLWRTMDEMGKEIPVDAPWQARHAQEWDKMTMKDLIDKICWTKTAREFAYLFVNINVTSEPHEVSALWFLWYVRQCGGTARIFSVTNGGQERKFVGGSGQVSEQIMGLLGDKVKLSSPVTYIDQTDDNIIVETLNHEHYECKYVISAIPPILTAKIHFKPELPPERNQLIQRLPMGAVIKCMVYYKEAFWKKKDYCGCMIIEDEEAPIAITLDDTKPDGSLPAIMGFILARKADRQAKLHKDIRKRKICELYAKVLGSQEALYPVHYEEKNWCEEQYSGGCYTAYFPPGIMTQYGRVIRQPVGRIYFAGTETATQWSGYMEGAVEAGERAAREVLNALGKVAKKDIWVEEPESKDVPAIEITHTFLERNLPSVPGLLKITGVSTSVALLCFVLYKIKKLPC

[2] = molecular target: L-type calcium channel, dihydropyridine site (Homo sapiens, UniProt O60840+Q01668+Q13698+Q13936); assay: Inhibitory activity at dihydropyridine site of Calcium channel L type at 10 uM; format: protein assay
[3] = molecular target: T2, Glutamate [NMDA] receptor (Homo sapiens) (UniProt Q05586+Q12879+Q13224+O15399+O60391+Q14957+Q8TCU5); assay: Inhibition of MK-801 site of glutamate receptor at 1 nM; format: protein-complex assay
[4] = molecular target: T2, Glutamate [NMDA] receptor (Homo sapiens); assay: Inhibition of MK-801 site of glutamate receptor at 10 uM; format: protein-complex assay
[5] = molecular target: 5-hydroxytryptamine receptor 2A (Homo sapiens, UniProt P28223); format: cell-based, CHO
5-hydroxytryptamine receptor 2A, sequence (P28223 whole entry): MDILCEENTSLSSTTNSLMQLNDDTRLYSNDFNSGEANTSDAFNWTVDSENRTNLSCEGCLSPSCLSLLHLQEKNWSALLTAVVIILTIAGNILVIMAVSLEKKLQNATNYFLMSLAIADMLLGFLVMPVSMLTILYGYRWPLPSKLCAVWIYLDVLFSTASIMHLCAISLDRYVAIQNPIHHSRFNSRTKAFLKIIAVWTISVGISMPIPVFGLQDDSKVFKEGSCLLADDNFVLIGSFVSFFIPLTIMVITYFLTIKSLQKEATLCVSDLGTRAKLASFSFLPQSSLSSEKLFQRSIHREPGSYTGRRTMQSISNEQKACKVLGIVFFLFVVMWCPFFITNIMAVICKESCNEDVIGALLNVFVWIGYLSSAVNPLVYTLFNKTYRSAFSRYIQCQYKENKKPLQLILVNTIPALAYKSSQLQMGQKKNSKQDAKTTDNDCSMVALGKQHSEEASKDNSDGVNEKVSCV

[6] = molecular target: T3, Endothelin-1 receptor (Homo sapiens) (UniProt P25101); assay: Inhibition of human recombinant endothelin 1 receptor at 10 uM
T3 sequence (whole entry): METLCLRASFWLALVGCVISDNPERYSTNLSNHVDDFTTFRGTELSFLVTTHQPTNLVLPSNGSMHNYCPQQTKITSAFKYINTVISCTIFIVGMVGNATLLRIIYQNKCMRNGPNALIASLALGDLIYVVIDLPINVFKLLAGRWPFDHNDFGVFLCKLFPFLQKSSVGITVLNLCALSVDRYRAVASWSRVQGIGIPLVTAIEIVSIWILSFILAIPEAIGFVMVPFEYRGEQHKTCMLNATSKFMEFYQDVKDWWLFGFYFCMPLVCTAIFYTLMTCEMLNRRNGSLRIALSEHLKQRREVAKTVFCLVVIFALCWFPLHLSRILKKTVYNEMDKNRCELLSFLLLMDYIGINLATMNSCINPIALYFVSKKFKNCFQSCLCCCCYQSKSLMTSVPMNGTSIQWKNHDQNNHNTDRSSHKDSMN

[7] = molecular target: Sigma non-opioid intracellular receptor 1 (Homo sapiens) (UniProt Q99720); assay: Inhibition of non selective binding to sigma receptor at 100 nM
Sigma non-opioid intracellular receptor 1 (Homo sapiens), sequence (Q99720 whole entry): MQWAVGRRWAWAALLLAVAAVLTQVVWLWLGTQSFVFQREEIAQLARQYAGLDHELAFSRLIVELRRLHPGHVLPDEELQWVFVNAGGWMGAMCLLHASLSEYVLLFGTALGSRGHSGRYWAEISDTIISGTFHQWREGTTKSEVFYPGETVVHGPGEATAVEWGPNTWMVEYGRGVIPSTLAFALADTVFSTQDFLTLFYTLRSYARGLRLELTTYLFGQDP

[8] = molecular target: T4, 5-hydroxytryptamine receptor 2C (Rattus norvegicus, UniProt P08909); assay: Activity against recombinant rat 5HT2C mediated intracellular calcium mobilization by FLIPR in SR3T3 cells
T4 sequence (P08909 whole entry): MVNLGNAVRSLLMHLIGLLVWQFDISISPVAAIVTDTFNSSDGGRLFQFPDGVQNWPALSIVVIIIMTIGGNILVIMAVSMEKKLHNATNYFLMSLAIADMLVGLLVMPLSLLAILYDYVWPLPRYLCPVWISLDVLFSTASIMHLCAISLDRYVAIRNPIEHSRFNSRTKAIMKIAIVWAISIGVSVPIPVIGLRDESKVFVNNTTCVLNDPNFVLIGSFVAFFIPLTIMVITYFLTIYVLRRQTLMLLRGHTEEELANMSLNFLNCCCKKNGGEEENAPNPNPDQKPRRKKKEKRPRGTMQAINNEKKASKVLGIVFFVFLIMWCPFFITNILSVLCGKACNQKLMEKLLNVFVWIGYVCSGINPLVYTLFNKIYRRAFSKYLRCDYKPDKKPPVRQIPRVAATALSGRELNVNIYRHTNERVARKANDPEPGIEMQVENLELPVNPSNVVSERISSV

[9] = molecular target: T5, Alpha-2A adrenergic receptor (Homo sapiens, UniProt P08913); assay: Activity at adrenergic alpha-2A receptor expressed in human clonic adenocarcinoma HT29 cell by adenylyl cyclase assay; format: functional, cell-based, HT-29
T5 sequence (P08913 whole entry): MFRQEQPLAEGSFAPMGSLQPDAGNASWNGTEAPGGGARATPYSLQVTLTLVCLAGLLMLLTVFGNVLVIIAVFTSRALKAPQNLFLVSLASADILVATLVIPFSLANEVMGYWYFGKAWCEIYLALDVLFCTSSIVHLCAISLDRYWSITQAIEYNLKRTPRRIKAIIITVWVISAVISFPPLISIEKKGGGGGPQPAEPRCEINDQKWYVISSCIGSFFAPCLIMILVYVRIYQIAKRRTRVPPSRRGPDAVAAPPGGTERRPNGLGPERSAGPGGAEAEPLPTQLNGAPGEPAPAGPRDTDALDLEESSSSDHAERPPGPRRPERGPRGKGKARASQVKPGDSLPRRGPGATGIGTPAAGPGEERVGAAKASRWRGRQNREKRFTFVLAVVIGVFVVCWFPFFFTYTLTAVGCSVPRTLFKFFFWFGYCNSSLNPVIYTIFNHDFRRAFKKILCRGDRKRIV

[10] = molecular target: Dopamine receptor (Homo sapiens) (UniProt P14416+P35462+P21918+P21917+P21728); assay: Inhibition of non selective binding to dopamine receptor at 10 uM; format: protein assay
[11] = molecular target: T6, 5-hydroxytryptamine receptor 2C (Homo sapiens, UniProt P28335); assay: biochemical
T6 sequence (P28335 whole entry): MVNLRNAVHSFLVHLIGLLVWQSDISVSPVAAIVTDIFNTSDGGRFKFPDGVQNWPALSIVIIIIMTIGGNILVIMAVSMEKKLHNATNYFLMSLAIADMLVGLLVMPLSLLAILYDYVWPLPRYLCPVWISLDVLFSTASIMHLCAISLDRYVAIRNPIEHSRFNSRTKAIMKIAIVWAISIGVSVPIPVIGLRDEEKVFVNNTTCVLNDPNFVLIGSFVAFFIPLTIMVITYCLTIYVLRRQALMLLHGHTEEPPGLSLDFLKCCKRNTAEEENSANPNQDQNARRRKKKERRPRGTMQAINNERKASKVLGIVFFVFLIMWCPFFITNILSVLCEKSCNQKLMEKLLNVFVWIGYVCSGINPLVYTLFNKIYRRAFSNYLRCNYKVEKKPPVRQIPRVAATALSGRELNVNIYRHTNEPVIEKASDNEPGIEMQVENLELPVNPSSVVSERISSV
Description: Displacement of [125I]DOI from cloned human 5HT2C receptor expressed in CHO cells

[12] = molecular target: T7, 5-hydroxytryptamine receptor 2C (Rattus norvegicus) (UniProt P08909); assay: Activity against recombinant rat 5HT2C mediated intracellular calcium mobilization by FLIPR in SR3T3 cells
T7 sequence (whole entry): T4 sequence (P08909 whole entry)

Molecule `C[C@H](N)Cn1ncc2ccc(O)cc21` has an inhibition at 10 µM [1] of 0.82%, an inhibition at 10 µM [2] of 15.2% and an inhibition [3] of -7.45%. The inhibition [4] was 15.1%, the Ki [5] was 12 nM and the inhibition [6] was -6.96%. The inhibition [7] was 0.17%, the EC50 [8] was 3.7 nM and the EC50 [9] was > 10000 nM. The inhibition [10] was 51.2%, the Ki [11] was 3 nM and the Emax [12] was 89%.
